From patent US20090318527A1, “INDOLE COMPOUNDS AND METHODS OF USE THEREOF” (priority 2008, published 2009)

Columns and labels:
5-HT2C [1] = molecular target: T1, 5-HT2C (Homo sapiens, UniProt P28335); settings: cited from earlier work
T1 sequence (P28335 33-458): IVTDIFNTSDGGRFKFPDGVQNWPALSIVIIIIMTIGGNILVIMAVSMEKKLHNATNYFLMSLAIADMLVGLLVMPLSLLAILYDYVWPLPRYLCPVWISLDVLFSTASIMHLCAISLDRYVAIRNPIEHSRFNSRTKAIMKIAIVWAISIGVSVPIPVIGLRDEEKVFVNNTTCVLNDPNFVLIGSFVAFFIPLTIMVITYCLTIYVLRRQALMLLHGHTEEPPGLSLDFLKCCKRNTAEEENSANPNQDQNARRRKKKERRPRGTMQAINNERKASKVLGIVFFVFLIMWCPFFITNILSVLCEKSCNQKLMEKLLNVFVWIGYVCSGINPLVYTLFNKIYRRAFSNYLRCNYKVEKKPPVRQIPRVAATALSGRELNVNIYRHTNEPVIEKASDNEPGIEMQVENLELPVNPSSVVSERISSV

human 5-HT2A receptor = molecular target: T2, human 5-HT2A receptor (Homo sapiens, UniProt P28223); test: Intracellular calcium flux assay, HEK 293 cells stably expressing 5-HT2A; format: cell-based; settings: for Emax at 10 µM: HEK293, read-out: 5-HT2A functional activity (N/A class); for Emax at 10 µM / 5-HT2A response as percentage of the maximal 5-HT response @ 10,000: at 10,000 nM; for 5-HT2A response as percentage of the maximal 5-HT response @ 10,000: EC50 not reached; for EC50: calcium flux, at least three independent experiments, each in triplicate, read-out: 5-HT2A mean EC50 ± SD;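 for all read-outs here: fluorescent calcium dye read on FLIPR Tetra, peak signal above baseline within 60 s after compound addition, seven concentrations spanning 10 pM to 10 µM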
T2 construct: expressed in transfected cells; host or cells: HEK 293
T2 sequence (P28223 whole entry): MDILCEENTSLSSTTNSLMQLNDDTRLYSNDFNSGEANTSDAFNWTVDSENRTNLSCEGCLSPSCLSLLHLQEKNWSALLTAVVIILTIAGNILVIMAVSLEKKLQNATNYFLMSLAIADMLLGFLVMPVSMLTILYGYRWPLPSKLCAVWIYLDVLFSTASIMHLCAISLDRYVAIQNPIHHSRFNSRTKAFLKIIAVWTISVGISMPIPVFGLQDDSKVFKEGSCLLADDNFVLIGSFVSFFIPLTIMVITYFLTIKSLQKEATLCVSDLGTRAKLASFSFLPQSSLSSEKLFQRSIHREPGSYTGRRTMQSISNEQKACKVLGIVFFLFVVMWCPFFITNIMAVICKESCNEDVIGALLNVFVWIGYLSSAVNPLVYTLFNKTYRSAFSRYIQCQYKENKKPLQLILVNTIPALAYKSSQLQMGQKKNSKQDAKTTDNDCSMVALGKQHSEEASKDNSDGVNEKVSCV

human 5-HT2B receptor = molecular target: T3, human 5-HT2B receptor (Homo sapiens, UniProt P41595); test: Intracellular calcium flux assay, HEK 293 cells stably expressing 5-HT2B; format: cell-based; settings: for Emax at 10 µM: HEK293, at 10,000 nM, read-out: 5-HT2B functional activity (N/A class); for Emax: HEK293, read-out: 5-HT2B efficacy as percentage of the maximal 5-HT response ± SD; for Emax / EC50: calcium flux, at least three independent experiments; for EC50: each in triplicate, read-out: 5-HT2B mean EC50 ± SD;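 for all read-outs here: calcium dye fluorescence read on a FLIPR Tetra, peak signal above baseline within 60 s after compound addition, seven-point concentration series from 10 pM up to 10 µM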
T3 construct: expressed in transfected cells; host or cells: HEK 293
T3 sequence (P41595 whole entry): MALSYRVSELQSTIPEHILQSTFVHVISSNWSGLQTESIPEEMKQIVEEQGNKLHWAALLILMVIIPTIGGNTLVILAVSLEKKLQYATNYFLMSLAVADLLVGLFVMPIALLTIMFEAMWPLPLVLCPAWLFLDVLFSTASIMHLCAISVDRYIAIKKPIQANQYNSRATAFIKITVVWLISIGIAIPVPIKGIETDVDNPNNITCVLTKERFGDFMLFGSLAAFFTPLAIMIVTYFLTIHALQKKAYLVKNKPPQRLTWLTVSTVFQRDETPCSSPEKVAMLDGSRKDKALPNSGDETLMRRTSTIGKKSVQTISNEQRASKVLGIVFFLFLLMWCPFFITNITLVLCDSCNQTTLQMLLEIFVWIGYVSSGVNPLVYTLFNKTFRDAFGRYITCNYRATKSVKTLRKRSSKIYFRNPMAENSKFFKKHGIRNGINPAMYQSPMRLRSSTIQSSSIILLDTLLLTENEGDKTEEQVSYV

mice [2] = test: Serotonin-induced scratching in mice (animal model for OCD); format: in vivo, male Swiss-Webster mice
Protocol: The subjects were male Swiss-Webster mice, 4-6 weeks old, weighing 25-45 g. Mice were housed 5 per cage, given free access to standard mouse food and water except during experiments, and maintained in a temperature-controlled room (70° F.). Serotonin and all test drugs were made up with ascorbic acid to protect against oxidation. Two mice, one a control, the other experimental, were tested each time. Each mouse was separately placed into a plexiglas box.
Mice were injected subcutaneously between the shoulder blades with 0.1 ml of serotonin, 0.4 mg per ml in 0.15 M saline plus ascorbic acid, 1 mg/ml. […] The cumulative number of scratches with a hind leg was recorded at 5 minute intervals for 30 minutes. One saline injected control and one test animal were tested together in each assay.

5-HT2C [3] = molecular target: T1, 5-HT2C; test: Intracellular calcium flux assay, HEK 293 cells stably expressing 5-HT2C; format: cell-based; design: expressed in transfected cells; host or cells: HEK 293; settings: for Emax: HEK293, read-out: 5-HT2C efficacy as percentage of the maximal 5-HT response ± SD, at least three independent experiments, entries marked a (42, 50, 51, 52) single measurements; for EC50: at least three independent experiments, entries marked a (42, 50, 51, 52) single measurements, read-out: 5-HT2C mean EC50 ± SD;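 for all read-outs here: calcium dye fluorescence read on FLIPR Tetra as peak signal above baseline within 60 s of compound addition, seven concentrations from 10 pM to 10 µM, each in triplicate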
mice [4] = test: Appetite suppression studies in food-deprived mice; format: in vivo; settings: mice food-deprived 18 hours, i.p.; for % Reduction from control (food consumption): p <0.05 versus saline control
Protocol: Mice were deprived of food, but not water, for 18 hours. They were then injected i.p. with test compounds dissolved in 0.9% NaCl containing 1 mg per ml ascorbic acid for protection against oxidation. Each mouse was placed in an individual cage for 30 minutes and then presented with a small petri dish containing a gel made from gelatin, powdered milk and sucrose. The dish was weighed at zero time and at 15-minute intervals for the next hour in order to quantitate food consumption. Controls were injected with saline-ascorbic acid; ±fenfluramine was used as an active control.

[5] = i.p. 5 minutes before serotonin s.c., 3 mg/kg
[6] = i.p., 3 mg/kg, p <0.05 versus saline control (*p = 0.09)
[7] = i.p. 5 minutes before serotonin s.c., 10 mg/kg
[8] = i.p., 10 mg/kg, p <0.05 versus saline control

| Compound | Emax at 10 µM (human 5-HT2A receptor) | Emax at 10 µM (human 5-HT2B receptor) | melting point | Emax (5-HT2C [3]) | EC50 (5-HT2C [3]) | also measured |
| --- | --- | --- | --- | --- | --- | --- |
| C[C@H](N)Cn1ccc2cc(F)c(Cl)cc21 [Ro 60-0175] | – | – | – | – | – | times more active at 5-HT2C as compared to 5-HT2A (5-HT2C [1]; 5-HT2C versus 5-HT2A): 25 times; selectivity over 5-HT2B receptors (5-HT2C [1]; 5-HT2C versus 5-HT2B): not selective |
| COc1c(F)ccc2c1c(CCN(C)C)cn2C.Cl [Compound 40, 2-(5-Fluoro-4-methoxy-1-methyl-1H-indol-3-yl)-N,N-dimethylethanamine hydrochloride] | < 10% | < 10% | 183.6 to 186.8 °C | 72% | 3.1 ± 1.2 nM | Average Number of Scratches 30 min. after injection (±SEM) (mice [2]; [5]): 8.2 ± 5.1; % Reduction from control (scratches) (mice [2]; [6]): 97* % |
| CNCCC(Oc1ccc(C(F)(F)F)cc1)c1ccccc1 (stereo not drawn) [Fluoxetine, reference compound] | – | – | – | – | – | Average Number of Scratches 30 min. after injection (±SEM) (mice [2]; [7]): 154.8 ± 105.2; % Reduction from control (scratches) (mice [2]; [8]): 63.5% |
| COc1ccc(F)c2c1c(CCN(C)C)cn2C [Compound 22, 2-(7-Fluoro-4-methoxy-1-methyl-1H-indol-3-yl)-N,N-dimethylethanamine] | – | < 10% | – | 82% | 9.4 ± 4.9 nM | 5-HT2A response as percentage of the maximal 5-HT response @ 10,000 (human 5-HT2A receptor): (21 ± 6 @ 10,000) %; EC50 (human 5-HT2A receptor): > 10000 nM; Mean food consumption 60 min. after injection: g (±SEM) Compound (mice [4]; 10 mg/kg): 0.15 (0.1) g; % Reduction from control (food consumption) (mice [4]; 10 mg/kg): 77%; Average Number of Scratches 30 min. after injection (±SEM) (mice [2]; [7]): 4.7 ± 4.7; % Reduction from control (scratches) (mice [2]; [8]): 98.5%; Average Number of Scratches 30 min. after injection (±SEM) (mice [2]; oral gavage, 20 mg/kg): 102 ± 50.8; % Reduction from control (scratches) (mice [2]; oral gavage, 20 mg/kg, p < 0.05): 83% |
| CCCn1cc(CCN(C)C)c2c(OCC)cc(F)cc21.Cl [Compound 38, 2-(4-Ethoxy-6-fluoro-1-propyl-1H-indol-3-yl)-N,N-dimethylethanamine hydrochloride] | < 10% | < 10% | 154 to 156 °C | 80% | 1250 nM | – |
| CCOc1cc(F)cc2c1c(CCN(C)C)cn2CC [Compound 35, 2-(4-Ethoxy-1-ethyl-6-fluoro-1H-indol-3-yl)-N,N-dimethylethanamine] | – | – | 77.1 to 78.2 °C | 88% | 246 ± 185 nM | 5-HT2A response as percentage of the maximal 5-HT response @ 10,000 (human 5-HT2A receptor): (14 ± 4.8 @ 10,000) %; EC50 (human 5-HT2A receptor): > 10000 nM; Emax (human 5-HT2B receptor): 47%; EC50 (human 5-HT2B receptor): 777 ± 383 nM |
| CCCOc1cc(F)cc2c1c(CCN(C)C)cn2C.Cl [Compound 33, 2-(6-Fluoro-1-methyl-4-propoxy-1H-indol-3-yl)-N,N-dimethylethanamine hydrochloride] | < 10% | – | 195.4 to 196.8 °C | 91% | 384 ± 193 nM | Emax (human 5-HT2B receptor): 78%; EC50 (human 5-HT2B receptor): 182 ± 102 nM |
| CCCn1cc(CCN(C)C)c2c(OC)cc(F)cc21.Cl [Compound 37, 2-(6-Fluoro-4-methoxy-1-propyl-1H-indol-3-yl)-N,N-dimethylethanamine hydrochloride] | < 10% | < 10% | 119.8 to 121.3 °C | 69% | 354 ± 195 nM | – |
| COc1c(F)cc(F)c2c1c(CCN(C)C)cn2C.Cl [Compound 58, 2-(5,7-Difluoro-4-methoxy-1-methyl-1H-indol-3-yl)-N,N-dimethylethanamine hydrochloride] | < 10% | < 10% | 185 to 189 °C | 51% | 2.4 ± 0.44 nM | – |
| CN(C)CCc1cn(C)c2c(F)ccc(OCc3ccccc3)c12 [Compound 50, 4-Benzyloxy-3-(2-dimethylaminoethyl)-7-fluoro-1-methyl-1H-indole] | < 10% | < 10% | 60 to 62 °C | 81% | 282 nM | – |
| CCOc1c(F)ccc2c1c(CCN(C)C)cn2CC.Cl [Compound 60, 2-(4-Ethoxy-1-ethyl-5-fluoro-1H-indol-3-yl)-N,N-dimethylethanamine hydrochloride] | < 10% | < 10% | 130 to 132 °C | 69% | 4.2 ± 0.94 nM | – |
| CN(C)CCc1cn(C)c2ccc(F)c(OCc3ccccc3)c12.Cl [Compound 52, 4-Benzyloxy-3-(2-dimethylaminoethyl)-5-fluoro-1-methyl-1H-indole hydrochloride] | < 10% | < 10% | 139 to 141 °C | 79% | 44 nM | – |
| CCNC(C)Cc1cccc(C(F)(F)F)c1 (racemic) [(±)-Fenfluramine, reference compound] | – | – | – | – | – | Mean food consumption 60 min. after injection: g (±SEM) Compound (mice [4]; 5 mg/kg): 0.90 (.04) g; % Reduction from control (food consumption) (mice [4]; 5 mg/kg): 39%; Mean food consumption 60 min. after injection: g (±SEM) Compound (mice [4]; 10 mg/kg): 0.41 (.11) g; % Reduction from control (food consumption) (mice [4]; 10 mg/kg): 69%; Average Number of Scratches 30 min. after injection (±SEM) (mice [2]; [5]): 22.8 ± 11.7; % Reduction from control (scratches) (mice [2]; [6]): 95%; Average Number of Scratches 30 min. after injection (±SEM) (mice [2]; oral gavage, 10 mg/kg): 35 ± 25.8; % Reduction from control (scratches) (mice [2]; oral gavage, 10 mg/kg, p < 0.05): 94% |
| CCn1cc(CCN(C)C)c2c(OC)cc(F)cc21.Cl [Compound 34, 2-(1-Ethyl-6-fluoro-4-methoxy-1H-indol-3-yl)-N,N-dimethylethanamine hydrochloride] | < 10% | – | 233.4 to 234.9 °C | 82% | 24 ± 8.38 nM | Emax (human 5-HT2B receptor): 21%; EC50 (human 5-HT2B receptor): 397 ± 133 nM |
| CN(C)CCc1cn(C)c2cc(O)c(F)cc12 [Compound 82, 3-[2-(Dimethylamino-ethyl)]-5-fluoro-1-methyl-1H-indol-6-ol] | < 10% | < 10% | 165 to 169 °C | 83% | 589 ± 546 nM | – |
